Assays:
Purkinje fiber = experiment: Effect on APD (APD75, field-stimulated right ventricular free wall); format: cell-based, adult mongrel dog; details: Canis lupus familiaris, purkinje, 20 min, 20 minutes incubation, 37° C., 1 Hz, control before drug = 100%, read-out: APD75 % (percent change in APD75); for activation at 1 µg/mL: dose 1 μg/ml; for activation at 3 µg/mL: dose 3 μg/ml; for activation at 10 µg/mL: dose 10 μg/ml
Summary of the method: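 Right ventricular free wall from pentobarbital-anaesthetized adult mongrel dog, held in Tyrode's solution at 37° C. with 1 Hz field stimulation. Purkinje fiber action potentials recorded by intracellular glass microelectrodes; APD75 measured after 20 minutes drug perfusion, expressed as percent change versus pre-drug control (100%).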

[1] = test system: right ventricle (effective refractory period); experiment: Activity on ERP of the right ventricle; format: in vivo, adult mongrel dog; details: Canis lupus familiaris, iv, ERP before drug = 100%, read-out: ERP % (ERP prolonging activity); for change in vivo at 0.1 mg/kg: 0.1 mg/kg i.v.; for change in vivo at 0.3 mg/kg: 0.3 mg/kg i.v.; for change in vivo at 1 mg/kg: 1 mg/kg i.v.; for change in vivo at 3 mg/kg: 3 mg/kg i.v.
Summary of the method: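 Anaesthetized open-chest mongrel dogs, right ventricle paced at 400 msec interval (4 msec, twice diastolic threshold) after alcohol ablation of sinus pacemaker. ERP defined by loss of response to first stimulus of a 10-stimulus train; drug given intravenously or intraduodenally, ERP expressed as % of pre-dose.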

atrial fibrillation = experiment: Atrial fibrillation model; format: in vivo, mongrel dog; details: dose of 0.3 to 3 mg/kg or 1 to 10 mg/kg
Text: Furthermore, the anaethetized dog was cut open at the chest. Bipolar electrodes were sutured to the right atrial surface, and stimulation electrodes were attached to the vagus nerves at both sides of the cervical region. Atrial fibrillation was induced by the method of Goldberger et al. A. L. Goldberger et al.: […] Further, the anaethetized dog was cut open at the chest. Left anterior descending coronary artery was ligated, and ninety minutes later, reperfused to prepare a myocardial infarction which was liable to develop tachycardia. At that time, a bipolar plunge electrode was placed in the interventricular septum near the ligated site. Several days after the operation, programmed electrical stimulation was applied to induce tachycardia. The effect of the drug to cause disappear of tachycardia was examined. In an anaethetized and open-chested mongrel dog, bipolar electrodes (silver and silver-silver chloride electrodes) were sutured respectively to the right atrium for stimulation and recording. The vagus nerves on both sides of the cervical region were isolated and cut, and stimulation electrodes were attached to the peripheral end. The atrial fibrillation was induced in accordance with the method of Goldberger et al. After cardiac arrest induced by stimulating the vagus nerves, electrical stimulation was applied to the right atria at a high frequency.

in vivo = details: mouse, in vivo, po
Experimental: (§1) By using male ddY-strain 5-week old mice (3 to 4 per group), the compounds of general formula (1) were each administered orally or intraperitoneally as a solution in saline or as a suspension in methyl cellulose, and 24 hours after the administration, the toxicity of the compounds was evaluated.

dopamine 2 receptor = target: T1, dopamine 2 receptor (Rattus norvegicus, UniProt P61169); experiment: [3H]spiperone binding assay (affinity for dopamine 2 receptor); design: species or system Wistar-strain male rat; details: rat striatal membranes, 0.5 nM [3H] spiperone, 37° C., 10 minutes
T1 construct: membrane fractions prepared from the brain a Wistarstrain male rat; from tissue; host or cells: rat brain striatum (Wistar, male), membrane fraction
Experimental: (§2) Striatal membranes fractions were prepared from a rat brain, and the affinity of the compounds of this invention on dopamine 2 receptors was determined by using [^3 H] spiperone assay from membranes fractions as an index. Moreover, frontal cortex membranes were prepared from a rat brain, and the affinity of the test drugs on serotonine 2 receptor was determined by using [^3 H] ketenserin binding assay. It was shown that the compounds of general formula (1) of the invention have marked anti-dopamine activity and anti-serotonine activity.
[^3 H]spiperone binding assay
The affinity of the compounds of this invention to the dopamine 2 receptor was determined on the basis of the ability to substitute [^3 H] spiperone from stratal membrane fractions prepared from the brain a Wistarstrain male rat.
(§3) The rat was decapitated, and the brain was obtained. The striatum was homogenized in 40 volumes of 50 mM Tris-HCl buffer (pH 7.6), and then centrifuged. The pellets were again homogenized in 50 volumes of the same buffer, and used in a binding test. The binding test was conducted by the following procedure.
(§4) The stria (original tissue weight 20 mg/ml), 100 microliters of a test drug and 0.5 nM of [^3 H] spiperone were incubated at 37° C. for 10 minutes in 50 mM Tris-HCl buffer (pH 7.6). Then, the reaction mixture was suction-filtered through a glass fiber filter (Watmann GF/B) and washed with a buffer three times.
(§5) The filter was put in a scintillation cocktail (ACSII, Amersham Co.), and after mixing, left to stand overnight. The radioactivity held on the filter was measured by a liquid scintillation counter. The nonspecific binding was measured in the presence of 1 μM of (+) butaclamol. The concentration of the test drug which inhibited 50% of a specific binding was determined from the graph and defined as IC50. Ki was calculated from the following equation. [formula]

serotonine 2 receptor = target: T2, serotonine 2 receptor (Rattus norvegicus, UniProt P14842); experiment: [3H]ketanserin binding assay (affinity for serotonine 2 receptor); design: species or system Wistar male rat; details: rat frontal cortex, 1 nM [3H] ketanserin, 37° C., 10 minutes
T2 construct: frontal cortex fraction prepared from the brain of a Wistar male rat; from tissue; host or cells: rat brain frontal cortex (Wistar, male), membrane fraction
Experimental: as §2
[^3 H] ketanserin binding assay
The affinity of the compound of the invention was determined on the basis of the ability to substitute [^3 H] ketanserin from a frontal cortex fraction prepared from the brain of a Wistar male rat.
as §3, with “The frontal cortex” for “The striatum”, “in 100” for “in 50”
as §4, with “frontal cortex” for “stria”, “1” for “20”, “1” for “0.5”, “ketanserin” for “spiperone”
as §5, with “methysergide.” for “(+) butaclamol.”, “IC5.” for “IC50.”

[2] = test system: Apomorphine-induced climbing of mice; experiment: Apomorphine-induced climbing (anti-DA activity); format: in vivo, ddY-strain male mice
Text: (§6) The effects of the compounds of general formula (1) on the apomorphine-induced climbing behavior of mice (i.e. anti-dopamine activity) and the effects of the test drugs of the invention on the quipazine-induced head twitching of mice (i.e. anti-serotonine activity) were also examined. It was made clear that the compounds of this invention represented by general formula (1) have marked anti-dopamine activity and anti-serotonine activity both in vivo and in vitro, and have potentiality as an anti-psychotic agent, an anti-depressant, an antianxiety agent, a sedative or as an anti-dementia agent.
(§7) By using 5 week old ddY-strain male mice (10 per group), the anti-dopamine (anti-DA hereinafter) and anti-serotonine (anti-5-HT hereinafter) activities were examined by the following procedures. All does of test drugs were adjusted to 1 mg/ml. They were each suspended in 0.5% carboxymethyl cellulose (CMC)/saline so that their volume administered was 0.1 ml/10 g. The suspension was administered intraperitoneally.
1. Effect of apomorphine on the climbing behavior (anti-DA activity):
Apomorphine (3 mg/kg) was subcutaneously administered 30 minutes after the intraperitoneal administration of each test drug, and 20 minutes later, the climbing time of each mouse was measured.

[3] = test system: Quipazine-induced head twitching of mice; experiment: Quipazine-induced head twitching (anti-5-HT activity); format: in vivo, ddY-strain male mice; details: for Percent inhibition of quipazine-induced head twitching / Quipazine-induced head twitching: 1 mg/kg i.p.; for Quipazine-induced head twitching: control 6.7 ± 0.8, **p < 0.05, ***p < 0.001
Text: as §6, §7
2. Effect of quipazine on the head twitch (anti-5-HT activity):
Quipazine (3 mg/kg) was administered intraperitoneally 30 minutes after the intraperitoneal administration of each test drug. After the lapse of 10 minutes, 20 minutes and 30 minutes from then, the number of head twitchings of each mouse which occurred for 2 minutes was counted.

mice = experiment: in vivo; details: p.o., 24 hours after administration, male ddY mice; 1440 min
Experimental: as §1

[4] = LD50 p.o., p.o., 24 hours after administration, male ddY mice

T2 sequence (P14842 whole entry): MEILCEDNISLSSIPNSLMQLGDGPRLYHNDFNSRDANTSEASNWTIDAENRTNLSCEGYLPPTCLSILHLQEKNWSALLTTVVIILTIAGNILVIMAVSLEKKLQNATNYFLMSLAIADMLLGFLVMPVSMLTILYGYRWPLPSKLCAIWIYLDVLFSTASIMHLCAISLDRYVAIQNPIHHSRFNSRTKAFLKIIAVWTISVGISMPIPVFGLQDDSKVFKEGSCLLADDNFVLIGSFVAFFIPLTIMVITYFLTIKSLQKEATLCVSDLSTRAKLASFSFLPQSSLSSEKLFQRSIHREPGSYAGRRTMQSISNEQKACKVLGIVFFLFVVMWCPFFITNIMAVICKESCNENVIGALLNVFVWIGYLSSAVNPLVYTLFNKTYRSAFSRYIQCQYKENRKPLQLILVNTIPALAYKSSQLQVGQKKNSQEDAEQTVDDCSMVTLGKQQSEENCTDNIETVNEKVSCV
T1 sequence (P61169 whole entry): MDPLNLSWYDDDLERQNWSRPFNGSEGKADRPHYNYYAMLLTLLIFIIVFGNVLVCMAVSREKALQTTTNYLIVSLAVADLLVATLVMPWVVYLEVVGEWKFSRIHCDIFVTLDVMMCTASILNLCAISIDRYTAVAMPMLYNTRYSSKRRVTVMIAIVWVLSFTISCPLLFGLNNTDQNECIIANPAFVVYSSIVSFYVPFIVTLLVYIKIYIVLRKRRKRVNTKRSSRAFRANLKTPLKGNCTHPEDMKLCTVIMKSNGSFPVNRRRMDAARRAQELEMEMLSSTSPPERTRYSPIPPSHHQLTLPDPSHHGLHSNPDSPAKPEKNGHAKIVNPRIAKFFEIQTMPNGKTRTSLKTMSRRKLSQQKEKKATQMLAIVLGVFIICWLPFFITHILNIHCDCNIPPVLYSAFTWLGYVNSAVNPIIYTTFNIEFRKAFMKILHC

**Q.** With CC1CCCN(CCCOc2ccc3c(c2)OCC3=O)C1 (centres unmarked) [Compound 1118] as the compound, how does the activation at 1 µg/mL (Purkinje fiber) read?
**A.** 10%

**Q.** And the activation at 3 µg/mL (Purkinje fiber)?
**A.** 13%

**Q.** And the activation at 10 µg/mL (Purkinje fiber)?
**A.** 24%

**Q.** And the change in vivo at 0.1 mg/kg [1]?
**A.** 5%

**Q.** What about the change in vivo at 0.3 mg/kg [1] of the same compound?
**A.** 9%

**Q.** What about the change in vivo at 1 mg/kg [1] of the same compound?
**A.** 22%

**Q.** And the change in vivo at 3 mg/kg [1]?
**A.** 26%

**Q.** What about the “disappearance of atrial fibrillation” value (atrial fibrillation) of the same compound?
**A.** could cause disappearance fibrillation

**Q.** What about the LD50 at 24 h (in vivo; [4]) of the same compound?
**A.** > 300 mg/kg

**Q.** Which LD50 at 24 h (in vivo) does the source give for O=C1COc2cc(OCCCN3CCC(C(=O)c4ccc(F)cc4)CC3)ccc21 [Compound 1236] here?
**A.** < 300 mg/kg

**Q.** What about the Ki (dopamine 2 receptor) of the same compound?
**A.** 122 nM

**Q.** What about the Ki (serotonine 2 receptor) of the same compound?
**A.** 9.1 nM

**Q.** What about the “Percent inhibition of apomorphine-induced climbing” value ([2]; 1 mg/kg i.p.) of the same compound?
**A.** 56%

**Q.** And the “Apomorphine-induced climbing (mean ± S.E.)” value ([2]; 1 mg/kg i.p., control 72.9 ± 8.5, **p < 0.01)?
**A.** 32.0 ± 8.6 sec/2 min.

**Q.** And the “effect on apomorphine-induced climbing behavior / anti-dopamine activity (in words)” value ([2]; in vivo, mice)?
**A.** significantly inhibited the apomorphine-induced climbing behavior

**Q.** And the “Percent inhibition of quipazine-induced head twitching” value [3]?
**A.** 99%

**Q.** What about the Quipazine-induced head twitching [3] of the same compound?
**A.** 0.1 ± 0.1 number/2 min.

**Q.** And the “effect on quipazine-induced head twitching / anti-serotonine activity (in words)” value ([3]; in vivo, mice)?
**A.** significantly inhibited the apomorphine-induced climbing behavior and quipazine-induced head twitching

**Q.** For O=C1COc2cc(OCCCN3CCC(Cc4ccccc4)CC3)ccc21 [Compound 1146], which activation at 1 µg/mL (Purkinje fiber) is on record?
**A.** 18%

**Q.** And the activation at 3 µg/mL (Purkinje fiber)?
**A.** 25%

**Q.** And the activation at 10 µg/mL (Purkinje fiber)?
**A.** 34%

**Q.** And the change in vivo at 0.1 mg/kg [1]?
**A.** 4%

**Q.** What about the change in vivo at 0.3 mg/kg [1] of the same compound?
**A.** 16%

**Q.** And the change in vivo at 1 mg/kg [1]?
**A.** 20%

**Q.** And the “disappearance of atrial fibrillation” value (atrial fibrillation)?
**A.** could cause disappearance fibrillation

**Q.** And the LD50 at 24 h (in vivo; [4])?
**A.** > 300 mg/kg

**Q.** What about the Ki (dopamine 2 receptor) of the same compound?
**A.** > 400 nM

**Q.** And the Ki (serotonine 2 receptor)?
**A.** 441 nM

**Q.** With O=C1COc2cc(OCCCN3CCC(c4ccccc4)CC3)ccc21 [Compound 1139] as the compound, how does the activation at 1 µg/mL (Purkinje fiber) read?
**A.** 33%

**Q.** And the activation at 3 µg/mL (Purkinje fiber)?
**A.** 55%

**Q.** What about the activation at 10 µg/mL (Purkinje fiber) of the same compound?
**A.** 65%

**Q.** And the change in vivo at 0.3 mg/kg [1]?
**A.** 5%

**Q.** What about the change in vivo at 1 mg/kg [1] of the same compound?
**A.** 11%

**Q.** And the “disappearance of atrial fibrillation” value (atrial fibrillation)?
**A.** could cause disappearance fibrillation

**Q.** What about the LD50 p.o. (mice) of the same compound?
**A.** > 1,000 mg/kg

**Q.** With O=C1COc2cc(OCCCN3CCC(c4ccccc4)CC3)ccc21 [Compound 1140] as the compound, how does the LD50 p.o. (mice) read?
**A.** > 300 mg/kg

**Q.** For CC1CCCC(C)N1CCCOc1ccc2c(c1)OCC2=O (centres unmarked) [Compound 1126], which activation at 3 µg/mL (Purkinje fiber) is on record?
**A.** 19%

**Q.** And the activation at 10 µg/mL (Purkinje fiber)?
**A.** 27%

**Q.** What about the change in vivo at 0.3 mg/kg [1] of the same compound?
**A.** 8%

**Q.** What about the change in vivo at 1 mg/kg [1] of the same compound?
**A.** 12%

**Q.** And the change in vivo at 3 mg/kg [1]?
**A.** 15%

**Q.** What about the “disappearance of atrial fibrillation” value (atrial fibrillation) of the same compound?
**A.** could cause disappearance fibrillation

**Q.** What about the LD50 at 24 h (in vivo; [4]) of the same compound?
**A.** > 300 mg/kg

**Q.** What does the source list for O=C1COc2cc(OCCCN3CCN(c4ccccc4)CC3)ccc21 [Compound 1256]?
**A.** Ki (dopamine 2 receptor): 286 nM; Ki (serotonine 2 receptor): 175 nM; Percent inhibition of quipazine-induced head twitching [3]: 43%; Quipazine-induced head twitching [3]: 3.8 ± 0.9 number/2 min.

Source: US5192799A, “Coumaran group containing amine compounds and their acid addition salts and quaternary ammonium salts and the use thereof as anti arrhythmic agents and as psychotropic agents” (Mitsui Petrochemical Industries, Ltd., priority 1987, dated 1993)
